Measurements reported in patent US7419966B2, “[5-carboxamido or 5-fluoro]-[2′,3′-unsaturated or 3′-modified]-pyrimidine nucleosides” (Emory University, priority 1995, dated 2008).

Legend:
Assay type in all cases: cell-based
HIV-1 (strain LAV) = test: Anti-HIV-1 activity in PHA-stimulated human PBM cells (reverse transcriptase readout); conditions: Table 1; HIV-1LAI; human PBM cells; estimated 10% error factor; read-out: Anti-HIV-1 in PBMC EC50
Description: The ability of nucleosides to inhibit HIV can be measured by various experimental techniques. The technique used herein, and described in detail below, measures the inhibition of viral replication in phytohemagglutinin (PHA) stimulated human peripheral blood mononuclear (PBM) cells infected with HIV-1. (strain LAV). The amount of virus produced is determined by measuring the virus-coded reverse transcriptase enzyme. The amount of enzyme produced is proportional to the amount of virus produced.
Three-day-old phytohemagglutinin-stimulated PBM cells (10^6 cells/ml) from hepatitis B and HIV-1 seronegative healthy donors were infected with HIV-1 (strain LAV) at a concentration of about 100 times the 50% tissue culture infectious dose (TICD 50) per ml and cultured in the presence and absence of various concentrations of antiviral compounds.
Approximately one hour after infection, the medium, with the compound to be tested (2 times the final concentration in medium) or without compound, was added to the flasks (5 ml; final volume 10 ml). AZT was used as a positive control.
The cells were exposed to the virus (about 2×10^5 dpm/ml, as determined by reverse transcriptase assay) and then placed in a CO2 incubator. HIV-1 (strain LAV) was obtained from the Center for Disease Control, Atlanta, Ga. The methods used for culturing the PBM cells, harvesting the virus and determining the reverse transcriptase activity were those described by McDougal et al. (J. Immun. Meth. 76, 171-183, 1985) and Spira et al. (J. Clin. Meth. 25, 97-99, 1987), except that fungizone was not included in the medium (see Schinazi, et al., Antimicrob. Agents Chemother. 32, 1784-1787 (1988); Id., 34:1061-1067 (1990)).
On day 6, the cells and supernatant were transferred to a 15 ml tube and centrifuged at about 900 g for 10 minutes. Five ml of supernatant were removed and the virus was concentrated by centrifugation at 40,000 rpm for 30 minutes (Beckman 70.1 Ti rotor). The solubilized virus pellet was processed for determination of the levels of reverse transcriptase. Results are expressed in dpm/ml of sampled supernatant. Virus from smaller volumes of supernatant (1 ml) can also be concentrated by centrifugation prior to solubilization and determination of reverse transcriptase levels.

[1] = system: uninfected human PBM cells; test: Toxicity in mitogen-stimulated uninfected human PBM cells (cell count, trypan blue exclusion); conditions: Table 1; uninfected human PBM cells, 6 days
Description: Mitogen stimulated uninfected human PBM cells (3.8×10^5 cells/ml) were cultured in the presence and absence of drug under similar conditions as those used for the antiviral assay described above. The cells were counted after 6 days using a hemacytometer and the trypan blue exclusion method, as described by Schinazi et al., Antimicrobial Agents and Chemotherapy, 22(3), 499 (1982). […]

CEM cells = test: Toxicity in CEM cells; conditions: Table 1
Vero cells = test: Toxicity in Vero cells; conditions: Table 1

Compound `Nc1cn([C@@H]2CS[C@H](CO)O2)c(=O)nc1N` (racemic) [C Amino (±)-β-DL] has an EC50 (HIV-1 (strain LAV)) of 26.4 µM, an IC50 [1] of over 100 µM and an IC50 (CEM cells) of over 100 µM. The IC50 (Vero cells) was over 100 µM.

`CNC(=O)c1cn([C@@H]2CS[C@H](CO)O2)c(=O)nc1N` (racemic) [C N-Methylaminoformyl (±)-β-DL] gave an EC50 (HIV-1 (strain LAV)) of over 100 µM, an IC50 [1] of over 100 µM and an IC50 (CEM cells) of over 100 µM. The IC50 (Vero cells) was over 100 µM.

In the case of `N#Cc1cn([C@@H]2CS[C@H](CO)O2)c(=O)[nH]c1=O` (racemic) [U Cyano (±)-β-DL], the EC50 (HIV-1 (strain LAV)) is reported as over 100 µM, the IC50 [1] is reported as over 100 µM and the IC50 (CEM cells) is reported as over 100 µM.

Compound `O=c1[nH]c(=O)n([C@@H]2CS[C@H](CO)O2)cc1[N+](=O)[O-]` (racemic) [U Nitro (±)-β-DL] has an EC50 (HIV-1 (strain LAV)) of 122 µM, an IC50 [1] of over 100 µM and an IC50 (CEM cells) of over 100 µM. It also gave an IC50 (Vero cells) of over 100 µM.

In the case of `Nc1cn([C@@H]2CS[C@H](CO)O2)c(=O)[nH]c1=O` (racemic) [U Amino (±)-β-DL], the EC50 (HIV-1 (strain LAV)) is reported as 119 µM, the IC50 [1] is reported as over 100 µM and the IC50 (CEM cells) is reported as over 100 µM. The IC50 (Vero cells) was over 100 µM.

Compound `Nc1nc(=O)n([C@@H]2CS[C@H](CO)O2)cc1[N+](=O)[O-]` (racemic) [C Nitro (±)-β-DL] has an EC50 (HIV-1 (strain LAV)) of 100 µM, an IC50 [1] of over 100 µM and an IC50 (CEM cells) of over 100 µM. For the same compound, the IC50 (Vero cells) was over 100 µM.

Work on `COC(=O)c1cn(C2CSC(CO)O2)c(=O)nc1N` (racemic) [C Methoxycarbonyl (±)-β-DL, 5-carboxylic acid methyl ester-2′,3′-dideoxy-3′-thiacytidine] yielded an EC50 (HIV-1 (strain LAV)) of 38.9 µM, an IC50 [1] of over 100 µM and an IC50 (CEM cells) of over 100 µM. It also gave an IC50 (Vero cells) of over 100 µM.

`CCc1cn([C@@H]2CS[C@H](CO)O2)c(=O)nc1N` (racemic) [C Ethyl (±)-β-DL] showed an EC50 (HIV-1 (strain LAV)) of 102 µM, an IC50 [1] of over 100 µM and an IC50 (CEM cells) of over 100 µM. It also gave an IC50 (Vero cells) of over 100 µM.

`C#Cc1cn([C@@H]2CS[C@H](CO)O2)c(=O)[nH]c1=O` (racemic) [U Ethynyl (±)-β-DL] gave an EC50 (HIV-1 (strain LAV)) of 23.8 µM, an IC50 [1] of over 100 µM and an IC50 (CEM cells) of over 100 µM. For the same compound, the IC50 (Vero cells) was over 100 µM.

In the case of `N#Cc1cn([C@@H]2CS[C@H](CO)O2)c(=O)nc1N` (racemic) [C Cyano (±)-β-DL], the EC50 (HIV-1 (strain LAV)) is reported as over 100 µM, the IC50 [1] is reported as over 100 µM and the IC50 (CEM cells) is reported as over 100 µM. The IC50 (Vero cells) was over 100 µM.

`CCc1cn([C@@H]2CS[C@H](CO)O2)c(=O)[nH]c1=O` (racemic) [U Ethyl (±)-β-DL] gave an EC50 (HIV-1 (strain LAV)) of over 100 µM, an IC50 [1] of over 100 µM and an IC50 (CEM cells) of over 100 µM. For the same compound, the IC50 (Vero cells) was over 100 µM.

For `NC(=O)c1cn([C@@H]2CS[C@H](CO)O2)c(=O)[nH]c1=O` (racemic) [U Carboxamide (±)-β-DL, 5-carboxamide-2′,3′-dideoxy-3′-thiauridine], the EC50 (HIV-1 (strain LAV)) was over 100 µM, the IC50 [1] was over 100 µM and the IC50 (CEM cells) was over 100 µM. It also gave an IC50 (Vero cells) of over 100 µM.

For `C#Cc1cn([C@@H]2CS[C@H](CO)O2)c(=O)nc1N` (racemic) [C Ethynyl (±)-β-DL], the EC50 (HIV-1 (strain LAV)) was over 100 µM, the IC50 [1] was over 100 µM and the IC50 (CEM cells) was over 100 µM. The IC50 (Vero cells) was over 100 µM.

`CN(C)C(=O)c1cn([C@@H]2CS[C@H](CO)O2)c(=O)nc1N` (racemic) [C N,N-Dimethylaminoformyl (±)-β-DL] gave an EC50 (HIV-1 (strain LAV)) of over 100 µM, an IC50 [1] of over 100 µM and an IC50 (CEM cells) of over 100 µM. The IC50 (Vero cells) was over 100 µM.
